Data on 6 molecules can be found in patent US11780893B2, “Kv1.3 blockers” (Zealand Pharma A/S, priority 2019, dated 2023).

In assay [1] the target is T1, human Kv1.3 voltage-gated K+ channel (Homo sapiens, UniProt P22001).
T1 construct: host or cells: CHO-DUKX
Description: cell-based. The note with it: inhibition of thallium flux, CHO-DUKX cells with human Kv1.3; read-out: IC50.

A further assay has as its target T2, Kv1.1 (Homo sapiens, UniProt Q09470).
T2 construct: expressed in transfected cells; host or cells: Chinese Hamster Ovary (CHO)
Description: cell-based. Particulars: for IC50: CHO cells, whole-cell patch clamp, read-out: Potency IC50 (nM) Kv1.1; for Selectivity Kv1.1/Kv1.3: ratio IC50[Kv1.1]/IC50[Kv1.3].

For a further assay, the target named is T3, Kv1.2 (Homo sapiens, UniProt P16389).
T3 construct: expressed in transfected cells; host or cells: Chinese Hamster Ovary (CHO)
Description: cell-based. Particulars: for IC50: CHO cells, whole-cell patch clamp, read-out: Potency IC50 (nM) Kv1.2.

The target in the next assay is T4, Kv1.3 (Homo sapiens, UniProt P22001).
T4 construct: expressed in transfected cells; host or cells: Chinese Hamster Ovary (CHO)
Description: cell-based. Particulars: CHO cells, whole-cell patch clamp; read-out: Potency IC50 (nM) Kv1.3.

The target in another assay is T5, Kv1.6 (Homo sapiens, UniProt P17658).
T5 construct: expressed in transfected cells; host or cells: Chinese Hamster Ovary (CHO)
Description: cell-based. Particulars: for IC50: CHO cells, whole-cell patch clamp, read-out: Potency IC50 (nM) Kv1.6; for Selectivity Kv1.6/Kv1.3: ratio IC50[Kv1.6]/IC50[Kv1.3].

For the next assay, the target named is Rat whole blood (Rattus norvegicus, UniProt P15384).

Bridge positions count the residues as written; N and C are the ends. Square brackets hold non-standard residues; d marks the D form. Peptide text beside a SMILES is read from it. Nle = CCCC[C@H](N)C(=O)O

T3 sequence (P16389 whole entry): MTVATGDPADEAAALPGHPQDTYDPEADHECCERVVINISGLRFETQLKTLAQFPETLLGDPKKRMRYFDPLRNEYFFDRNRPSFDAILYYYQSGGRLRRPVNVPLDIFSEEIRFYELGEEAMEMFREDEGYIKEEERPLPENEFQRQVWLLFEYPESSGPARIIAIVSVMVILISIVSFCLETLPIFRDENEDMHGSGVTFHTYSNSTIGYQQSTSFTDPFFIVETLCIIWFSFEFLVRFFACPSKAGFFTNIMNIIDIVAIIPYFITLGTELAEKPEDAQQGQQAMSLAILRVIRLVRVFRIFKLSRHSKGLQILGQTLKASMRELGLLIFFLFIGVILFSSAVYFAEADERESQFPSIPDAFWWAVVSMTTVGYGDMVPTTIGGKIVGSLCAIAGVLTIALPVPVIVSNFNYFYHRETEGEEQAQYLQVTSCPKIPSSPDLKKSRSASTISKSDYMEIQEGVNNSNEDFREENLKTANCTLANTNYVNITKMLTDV
Rat whole blood, sequence (P15384 whole entry): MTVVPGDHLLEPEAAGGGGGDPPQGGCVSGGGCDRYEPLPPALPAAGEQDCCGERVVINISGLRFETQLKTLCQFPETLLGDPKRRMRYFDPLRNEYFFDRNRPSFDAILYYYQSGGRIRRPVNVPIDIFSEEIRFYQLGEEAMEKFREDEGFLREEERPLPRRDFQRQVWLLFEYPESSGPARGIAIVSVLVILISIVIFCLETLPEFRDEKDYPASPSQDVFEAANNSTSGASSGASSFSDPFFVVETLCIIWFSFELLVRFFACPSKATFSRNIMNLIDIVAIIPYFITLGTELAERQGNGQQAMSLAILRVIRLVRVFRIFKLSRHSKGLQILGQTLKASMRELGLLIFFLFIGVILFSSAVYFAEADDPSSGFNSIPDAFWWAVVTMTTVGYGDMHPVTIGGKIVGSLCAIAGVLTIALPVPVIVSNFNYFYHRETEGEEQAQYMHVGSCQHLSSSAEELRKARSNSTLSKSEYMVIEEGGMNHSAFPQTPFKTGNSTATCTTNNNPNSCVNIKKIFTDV
T5 sequence (P17658 whole entry): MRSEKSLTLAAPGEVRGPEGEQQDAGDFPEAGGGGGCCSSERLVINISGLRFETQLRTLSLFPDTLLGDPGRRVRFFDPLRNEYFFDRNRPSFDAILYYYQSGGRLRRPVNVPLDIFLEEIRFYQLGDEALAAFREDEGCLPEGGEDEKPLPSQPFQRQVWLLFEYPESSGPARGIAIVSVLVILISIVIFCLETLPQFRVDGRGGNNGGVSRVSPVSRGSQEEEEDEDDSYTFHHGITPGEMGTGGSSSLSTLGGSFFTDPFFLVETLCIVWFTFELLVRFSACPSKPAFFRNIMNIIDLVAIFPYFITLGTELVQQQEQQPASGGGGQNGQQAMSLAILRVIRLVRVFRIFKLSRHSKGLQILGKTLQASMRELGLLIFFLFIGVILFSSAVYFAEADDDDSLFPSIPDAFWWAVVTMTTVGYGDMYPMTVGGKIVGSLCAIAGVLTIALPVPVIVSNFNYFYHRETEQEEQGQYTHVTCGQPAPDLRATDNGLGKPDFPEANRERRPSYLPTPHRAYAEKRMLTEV
T2 sequence (Q09470 whole entry): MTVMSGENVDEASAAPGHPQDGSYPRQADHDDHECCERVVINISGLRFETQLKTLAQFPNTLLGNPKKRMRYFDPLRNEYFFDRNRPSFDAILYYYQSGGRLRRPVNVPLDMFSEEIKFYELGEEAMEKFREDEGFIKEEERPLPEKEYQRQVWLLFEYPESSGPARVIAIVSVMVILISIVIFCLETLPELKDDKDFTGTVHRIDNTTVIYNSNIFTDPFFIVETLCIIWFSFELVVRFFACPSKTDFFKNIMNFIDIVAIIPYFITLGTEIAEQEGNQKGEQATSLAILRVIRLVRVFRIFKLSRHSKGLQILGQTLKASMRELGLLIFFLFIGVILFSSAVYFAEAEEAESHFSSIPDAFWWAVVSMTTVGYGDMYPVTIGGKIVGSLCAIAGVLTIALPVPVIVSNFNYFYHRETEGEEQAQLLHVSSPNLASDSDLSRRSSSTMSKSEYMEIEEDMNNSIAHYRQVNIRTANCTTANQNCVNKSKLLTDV
T1 sequence (P22001 whole entry): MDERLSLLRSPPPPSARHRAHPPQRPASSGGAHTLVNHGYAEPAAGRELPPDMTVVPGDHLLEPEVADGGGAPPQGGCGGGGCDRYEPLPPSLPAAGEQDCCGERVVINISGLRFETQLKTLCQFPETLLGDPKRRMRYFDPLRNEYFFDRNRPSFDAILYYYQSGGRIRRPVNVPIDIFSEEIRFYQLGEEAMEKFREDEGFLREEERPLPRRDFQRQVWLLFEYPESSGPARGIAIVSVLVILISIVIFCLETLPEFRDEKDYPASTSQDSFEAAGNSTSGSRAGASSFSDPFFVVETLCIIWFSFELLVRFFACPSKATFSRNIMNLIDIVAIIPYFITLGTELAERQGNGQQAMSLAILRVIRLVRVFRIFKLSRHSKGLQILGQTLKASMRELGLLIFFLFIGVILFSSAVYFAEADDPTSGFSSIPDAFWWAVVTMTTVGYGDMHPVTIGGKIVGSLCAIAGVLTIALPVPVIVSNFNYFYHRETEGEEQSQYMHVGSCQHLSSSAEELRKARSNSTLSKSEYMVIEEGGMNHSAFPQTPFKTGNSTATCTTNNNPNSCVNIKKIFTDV
T4 sequence (P22001 whole entry): as above

As for `CC[C@H](C)[C@@H]1NC(=O)[C@H](C)NC(=O)[C@H](CCCCN)NC(=O)[C@H](CC(C)C)NC(=O)[C@@H]2CSSC[C@@H](C(=O)N[C@@H](Cc3ccc(O)cc3)C(=O)N3CCC[C@H]3C(=O)N[C@@H](CCCNC(=N)N)C(N)=O)NC(=O)[C@H](CCCCN)NC(=O)[C@@H]3CSSC[C@H](NC(=O)[C@H](CCC(=O)O)NC(=O)[C@H](C(C)C)NC(=O)[C@H](CO)NC(=O)[C@H](C)NC(=O)[C@H](CO)NC(=O)[C@@H](NC(=O)[C@H](CCCNC(=N)N)NC(=O)[C@H](CCSC)NC(=O)[C@H](CC(=O)O)NC(=O)[C@H](CCSC)NC(=O)[C@@H](N)CC(N)=O)CSSC[C@H](NC(=O)[C@H](CCCCN)NC(=O)CNC(=O)[C@H](Cc4ccccc4)NC(=O)[C@H]([C@@H](C)CC)NC(=O)[C@H](CO)NC(=O)CNC1=O)C(=O)N[C@@H](CCSC)C(=O)N[C@@H](CC(N)=O)C(=O)N[C@@H](CCCCN)C(=O)N[C@@H](CCCCN)C(=O)N3)C(=O)N[C@@H](CCCCN)C(=O)N[C@@H](CCC(=O)O)C(=O)N[C@@H](CCCCN)C(=O)N2` [Compound 31] (H-NMDMRCSASVECKEKCLKAIGSIFGKCMNKKCKCYPR-NH2; disulfide 6-27, 12-32, 16-34), the IC50 is 0.075 nM in assay [1]; greater than 3000 nM on Kv1.1; 179 nM on Kv1.2; 0.28 nM at Kv1.3; greater than 3000 nM at Kv1.6; no more than 1 nM at Rat whole blood. The “Selectivity Kv1.1/Kv1.3” value at Kv1.1 is recorded as greater than 10800. For the same molecule, the “Selectivity Kv1.6/Kv1.3” value at Kv1.6 was greater than 10800.

As for `CC[C@H](C)[C@@H]1NC(=O)[C@H](C)NC(=O)[C@H](CCCCN)NC(=O)[C@H](CC(C)C)NC(=O)[C@@H]2CSSC[C@@H](C(=O)N[C@@H](Cc3ccc(O)cc3)C(=O)N3CCC[C@H]3C(=O)N[C@@H](CCCNC(=N)N)C(N)=O)NC(=O)[C@H](CCCCN)NC(=O)[C@@H]3CSSC[C@H](NC(=O)[C@H](CCC(=O)O)NC(=O)[C@H](C(C)C)NC(=O)[C@H](CO)NC(=O)[C@H](C)NC(=O)[C@H](CO)NC(=O)[C@@H](NC(=O)[C@H](CCCNC(=N)N)NC(=O)[C@H](CCSC)NC(=O)[C@H](CC(=O)O)NC(=O)[C@H](CCSC)NC(=O)[C@@H](N)CC(N)=O)CSSC[C@H](NC(=O)[C@H](CCCCN)NC(=O)CNC(=O)[C@H](Cc4ccccc4)NC(=O)[C@H]([C@@H](C)CC)NC(=O)[C@H](CO)NC(=O)[C@H](CCCNC(=N)N)NC1=O)C(=O)N[C@@H](CCSC)C(=O)N[C@@H](CC(N)=O)C(=O)N[C@@H](CCCCN)C(=O)N[C@@H](CCCCN)C(=O)N3)C(=O)N[C@@H](CCCCN)C(=O)N[C@@H](CCC(N)=O)C(=O)N[C@@H](CCCCN)C(=O)N2` [Compound 21] (H-NMDMRCSASVECKQKCLKAIRSIFGKCMNKKCKCYPR-NH2; disulfide 6-27, 12-32, 16-34), the half-maximal inhibitory concentration (IC50) is 0.12 nM in assay [1]; greater than 3000 nM at Kv1.1; 57 nM on Kv1.2; 0.22 nM at Kv1.3; 626 nM on Kv1.6; no more than 1 nM against Rat whole blood. Besides, the “Selectivity Kv1.1/Kv1.3” value on Kv1.1 was greater than 13700.

As for `CC[C@H](C)[C@@H]1NC(=O)[C@H](C)NC(=O)[C@H](CCCCN)NC(=O)[C@H](CC(C)C)NC(=O)[C@@H]2CSSC[C@@H](C(=O)N[C@@H](Cc3ccc(O)cc3)C(=O)N3CCC[C@H]3C(=O)N[C@@H](CCCNC(=N)N)C(N)=O)NC(=O)[C@H](CCCCN)NC(=O)[C@@H]3CSSC[C@H](NC(=O)[C@H](CCC(=O)O)NC(=O)[C@H](C(C)C)NC(=O)[C@H](CO)NC(=O)[C@H](C)NC(=O)[C@H](CO)NC(=O)[C@@H](NC(=O)[C@H](CCCNC(=N)N)NC(=O)[C@H](CCSC)NC(=O)[C@H](CC(=O)O)NC(=O)[C@H](CCSC)NC(=O)[C@@H](N)CC(N)=O)CSSC[C@H](NC(=O)[C@H](CCCCN)NC(=O)CNC(=O)[C@H](Cc4ccccc4)NC(=O)[C@H]([C@@H](C)CC)NC(=O)[C@H](CO)NC(=O)CNC1=O)C(=O)N[C@@H](CCSC)C(=O)N[C@@H](CC(N)=O)C(=O)N[C@@H](CCCCN)C(=O)N[C@@H](CCCCN)C(=O)N3)C(=O)N[C@@H](CC(C)C)C(=O)N[C@@H](CCC(N)=O)C(=O)N[C@@H](CCCCN)C(=O)N2` [Compound 29] (H-NMDMRCSASVECLQKCLKAIGSIFGKCMNKKCKCYPR-NH2; disulfide 6-27, 12-32, 16-34), the IC50 in assay [1] was 0.18 nM; at Kv1.1, greater than 3000 nM; at Kv1.2 it was 874 nM; on Kv1.3, 0.4 nM; at Kv1.6, greater than 3000 nM; on Rat whole blood it was no more than 1 nM. The “Selectivity Kv1.1/Kv1.3” value at Kv1.1 is on record as greater than 7400. For the same molecule, the “Selectivity Kv1.6/Kv1.3” value on Kv1.6 is given as greater than 7400.

Take `CCCC[C@H](NC(=O)[C@@H]1CCCN1)C(=O)N[C@@H](CC(=O)O)C(=O)N[C@@H](CCCC)C(=O)N[C@@H](CCCNC(=N)N)C(=O)N[C@H]1CSSC[C@@H]2NC(=O)[C@H](CCCCN)NC(=O)CNC(=O)[C@H](Cc3ccccc3)NC(=O)[C@H]([C@@H](C)CC)NC(=O)[C@@H]3CSSC[C@@H](C(N)=O)NC(=O)[C@@H]4CCCN4C(=O)[C@H](Cc4ccc(O)cc4)NC(=O)[C@@H]4CSSC[C@H](NC(=O)[C@H](CCCCN)NC(=O)[C@H](CCC(N)=O)NC(=O)[C@H](CCCCN)NC(=O)[C@H](CSSC[C@H](NC(=O)[C@H](CCCCN)NC(=O)[C@H](CCCCN)NC(=O)[C@H](CC(N)=O)NC(=O)[C@H](CCCC)NC2=O)C(=O)N[C@@H](CCCCN)C(=O)N4)NC(=O)[C@H](CCC(=O)O)NC(=O)[C@H](C(C)C)NC(=O)[C@H](CO)NC(=O)[C@H](C)NC(=O)[C@H](CO)NC1=O)C(=O)N[C@@H](CC(C)C)C(=O)N[C@@H](CCCCN)C(=O)N[C@@H](C)C(=O)N[C@@H]([C@@H](C)CC)C(=O)NCC(=O)N3` [Compound 83] (H-P[Nle]D[Nle]RCSASVECKQKCLKAIGCIFGKC[Nle]NKKCKCYPC-NH2; disulfide 6-27, 12-32, 16-34, 22-37): the 50% inhibitory concentration (IC50) in assay [1] is 0.12 nM; at Kv1.1, greater than 3000 nM; on Kv1.2, 624 nM; on Kv1.3, 0.63 nM; at Kv1.6 it was 1220 nM; at Rat whole blood it was no more than 1 nM. For the same molecule, on Kv1.1, the “Selectivity Kv1.1/Kv1.3” value was greater than 4800. Further, at Kv1.2 (ratio IC50[Kv1.2]/IC50[Kv1.3]), the “Selectivity Kv1.2/Kv1.3” value is 995. Also, the “Selectivity Kv1.6/Kv1.3” value at Kv1.6 is given as 1949.

`CCCC[C@@H]1NC(=O)[C@@H]2CSSC[C@H](NC(=O)[C@H](CCCNC(=N)N)NC(=O)[C@H](CCCC)NC(=O)[C@H](CC(=O)O)NC(=O)[C@@H](N)CCCC)C(=O)N[C@@H](CO)C(=O)N[C@@H](C)C(=O)N[C@@H](CO)C(=O)N[C@@H](C(C)C)C(=O)N[C@@H](CCC(=O)O)C(=O)N[C@H]3CSSC[C@H](NC(=O)[C@H](CCCCN)NC(=O)[C@H](CCCCN)NC(=O)[C@H](CC(N)=O)NC1=O)C(=O)N[C@@H](CCCCN)C(=O)N[C@H](C(=O)N[C@@H](Cc1ccc(O)cc1)C(=O)N1CCC[C@H]1C(=O)N[C@@H](CCCNC(=N)N)C(=O)O)CSSC[C@H](NC(=O)[C@H](CCCCN)NC(=O)[C@H](CCC(N)=O)NC(=O)[C@H](CCCCN)NC3=O)C(=O)N[C@@H](CC(C)C)C(=O)N[C@@H](CCCCN)C(=O)N[C@@H](C)C(=O)N[C@@H]([C@@H](C)CC)C(=O)NCC(=O)N[C@@H](CO)C(=O)N[C@@H]([C@@H](C)CC)C(=O)N[C@@H](Cc1ccccc1)C(=O)NCC(=O)N[C@@H](CCCCN)C(=O)N2` [Compound 94] (H-[Nle]D[Nle]RCSASVECKQKCLKAIGSIFGKC[Nle]NKKCKCYPR-OH; disulfide 5-26, 11-31, 15-33): the IC50 in assay [1] was 0.16 nM; on Kv1.1, greater than 3000 nM; on Kv1.2, 1860 nM; at Kv1.3 it was 0.17 nM; at Kv1.6, greater than 3000 nM; on Rat whole blood it was no more than 1 nM. In addition, the “Selectivity Kv1.1/Kv1.3” value at Kv1.1 is greater than 17800. In addition, on Kv1.6, the “Selectivity Kv1.6/Kv1.3” value is greater than 17800.

With `CCCC[C@@H]1NC(=O)[C@@H]2CSSC[C@H](NC(C)=O)C(=O)N[C@@H](CO)C(=O)N[C@@H](C)C(=O)N[C@@H](CO)C(=O)N[C@@H](C(C)C)C(=O)N[C@@H](CCC(=O)O)C(=O)N[C@H]3CSSC[C@H](NC(=O)[C@H](CCCCN)NC(=O)[C@H](CCCCN)NC(=O)[C@H](CC(N)=O)NC1=O)C(=O)N[C@@H](CCCCN)C(=O)N[C@H](C(=O)N[C@@H](Cc1ccc(O)cc1)C(=O)N1CCC[C@H]1C(=O)N[C@@H](CCCNC(=N)N)C(N)=O)CSSC[C@H](NC(=O)[C@H](CCCCN)NC(=O)[C@H](CCC(N)=O)NC(=O)[C@H](CCCCN)NC3=O)C(=O)N[C@@H](CC(C)C)C(=O)N[C@@H](CCCCN)C(=O)N[C@@H](C)C(=O)N[C@@H]([C@@H](C)CC)C(=O)NCC(=O)N[C@@H](CO)C(=O)N[C@@H]([C@@H](C)CC)C(=O)N[C@@H](Cc1ccccc1)C(=O)NCC(=O)N[C@@H](CCCCN)C(=O)N2` [Compound 105] (Ac-CSASVECKQKCLKAIGSIFGKC[Nle]NKKCKCYPR-NH2; disulfide 1-22, 7-27, 11-29), the concentration for half-maximal inhibition (IC50) is 0.16 nM in assay [1]; greater than 3000 nM on Kv1.1; 384 nM on Kv1.2; 0.24 nM at Kv1.3; greater than 3000 nM on Kv1.6; no more than 1 nM against Rat whole blood. Moreover, the “Selectivity Kv1.1/Kv1.3” value on Kv1.1 is recorded as greater than 12400. Moreover, the “Selectivity Kv1.6/Kv1.3” value at Kv1.6 is reported as greater than 12400.
